In patent publication US7138361B2, “Herbicidal heterocycles” (E. I. du Pont de Nemours and Company, priority 2000, dated 2006):

Tests used:
Type in all cases: in vivo
[1] = tested on: duck salad (Heteranthera limosa); experiment: Test C flooded paddy test; conditions: for Ducksalad plant response rating: Flooded Paddy, scale 0 to 100, 0 no effect, 100 complete control; for Plant response rating, Ducksalad: flooded paddy test, scale 0 to 100 (0 no effect, 100 complete control)
Outline: (§1)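 Response on a 0-to-100 scale (no effect to complete control) was assessed by eye versus controls. Plants had reached 2 leaves when treated in flooded paddy conditions. The assessment took place after 12–14 days of greenhouse growth.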

[2] = tested on: smallflower flatsedge (Cyperus difformis); experiment: Test C flooded paddy test; conditions: for Flatsedge plant response rating: Flooded Paddy, scale 0 to 100, 0 no effect, 100 complete control; for Plant response rating, Flatsedge: flooded paddy test, scale 0 to 100 (0 no effect, 100 complete control)
Outline: as §1

[3] = tested on: barnyardgrass (Echinochloa crus-galli); experiment: Test C flooded paddy test; conditions: for Barnyardgrass plant response rating: Flooded Paddy, scale 0 to 100, 0 no effect, 100 complete control; for Plant response rating, Barnyardgrass: flooded paddy test, scale 0 to 100 (0 no effect, 100 complete control)
Outline: as §1

[4] = tested on: woolly cupgrass (Eriochloa villosa); experiment: Test C preemergence
Outline: (§2)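 Visual 0–100 rating vs controls (0 = no effect, 100 = complete control) at 12–14 d, greenhouse. Compounds in non-phytotoxic solvent + surfactant; pre: sprayed after seeding; post: 1–4-leaf plants, 2–18 cm.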

[5] = tested on: pigweed (Amaranthus retroflexus); experiment: Test C preemergence
Outline: as §2

[6] = tested on: johnsongrass (Sorghum halepense); experiment: Test C preemergence; conditions: preemergence
Outline: as §2

[7] = tested on: common ragweed (Ambrosia elatior); experiment: Test C preemergence
Outline: as §2

[8] = tested on: goosegrass (Eleusine indica); experiment: Test C preemergence
Outline: as §2

[9] = tested on: morningglory (Ipomoea hederacea); experiment: Test C preemergence
Outline: as §2

kochia (Kochia scoparia) = experiment: Test C preemergence
Outline: as §2

[10] = tested on: velvetleaf (Abutilon theophrasti); experiment: Test C preemergence
Outline: as §2

[11] = tested on: bermudagrass (Cynodon dactylon); experiment: Test C preemergence
Outline: as §2

[12] = tested on: lambsquarters (Chenopodium album); experiment: Test C preemergence
Outline: as §2

[13] = tested on: giant foxtail (Setaria faberii); experiment: Test C preemergence
Outline: as §2

[14] = tested on: Surinam grass (Brachiaria decumbens); experiment: Test C preemergence
Outline: as §2

[15] = tested on: crabgrass (Digitaria sanguinalis); experiment: Test C preemergence
Outline: as §2

[16] = tested on: cocklebur (Xanthium strumarium); experiment: Test C preemergence
Outline: as §2

corn (Zea mays) = experiment: Test C preemergence
Outline: as §2

Nightshade = experiment: Test C preemergence
[17] = tested on: yellow nutsedge (Cyperus esculentus); experiment: Test C preemergence
Outline: as §2

Sunflower = experiment: Test C preemergence; conditions: Rate 125 g/ha; scale 0 to 100, 0 no effect, 100 complete control
soybean (Glycine max) = experiment: Test C preemergence
Outline: as §2

[18] = Rate 125 g/ha, scale 0 to 100, 0 no effect, 100 complete control
[19] = preemergence, Rate 62 g/ha, scale 0 to 100
[20] = preemergence, Rate 500 g/ha, visual evaluation after 12 to 14 days
[21] = preemergence, Rate 250 g/ha, scale 0 to 100, 0 no effect, 100 complete control
[22] = Rate 250 g/ha, scale 0 to 100, 0 no effect, 100 complete control

## CC(C)(C)c1ccn(C2CCN(c3cccc(SC(F)(F)F)c3)C2=O)n1 (centres unmarked) [Compound 93]
[1]; Rate 250 g/ha
  Ducksalad plant response rating: 100
[1]; Rate 500 g/ha
  Ducksalad plant response rating: 100
[1]; Rate 62 g/ha
  Plant response rating, Ducksalad: 0
[1]; Rate 125 g/ha
  Plant response rating, Ducksalad: 90
[2]; Rate 250 g/ha
  Flatsedge plant response rating: 100
[2]; Rate 500 g/ha
  Flatsedge plant response rating: 100
[2]; Rate 62 g/ha
  Plant response rating, Flatsedge: 0
[2]; Rate 125 g/ha
  Plant response rating, Flatsedge: 100
[3]; Rate 250 g/ha
  Barnyardgrass plant response rating: 60
[3]; Rate 500 g/ha
  Barnyardgrass plant response rating: 70
[3]; Rate 62 g/ha
  Plant response rating, Barnyardgrass: 0
[3]; Rate 125 g/ha
  Plant response rating, Barnyardgrass: 50
[4]; [18]
  Plant response rating, Cupgrass, Woolly: 20
[4]; [19]
  Plant response rating, Cupgrass, Woolly: 0
[4]; [20]
  Plant response rating (0 to 100), Cupgrass, Woolly: 80
[4]; [21]
  Plant response rating, Cupgrass, Woolly: 70
[5]; [18]
  Plant response rating, Pigweed: 20
[5]; [19]
  Plant response rating, Pigweed: 0
[5]; [20]
  Plant response rating (0 to 100), Pigweed: 80
[5]; [21]
  Plant response rating, Pigweed: 20
[6]; Rate 62 g/ha, scale 0 to 100
  Plant response rating, Johnsongrass: 0
[6]; Rate 500 g/ha, visual evaluation after 12 to 14 days
  Plant response rating (0 to 100), Johnsongrass: 10
[6]; [22]
  Plant response rating, Johnsongrass: 10
[7]; [18]
  Plant response rating, Ragweed, Common: 0
[7]; [19]
  Plant response rating, Ragweed, Common: 0
[7]; [20]
  Plant response rating (0 to 100), Ragweed, Common: 0
[7]; [21]
  Plant response rating, Ragweed, Common: 0
[8]; [18]
  Plant response rating, Goosegrass: 100
[8]; [19]
  Plant response rating, Goosegrass: 20
[8]; [20]
  Plant response rating (0 to 100), Goosegrass: 100
[8]; [21]
  Plant response rating, Goosegrass: 100
[9]; [18]
  Plant response rating, Morningglory: 0
[9]; [19]
  Plant response rating, Morningglory: 0
[9]; [20]
  Plant response rating (0 to 100), Morningglory: 20
[9]; [21]
  Plant response rating, Morningglory: 0
Kochia (Kochia scoparia); [18]
  Plant response rating, Kochia: 0
Kochia (Kochia scoparia); [19]
  Plant response rating, Kochia: 0
Kochia (Kochia scoparia); [20]
  Plant response rating (0 to 100), Kochia: 80
Kochia (Kochia scoparia); [21]
  Plant response rating, Kochia: 30
[10]; [18]
  Plant response rating, Velvetleaf: 0
[10]; [19]
  Plant response rating, Velvetleaf: 0
[10]; [20]
  Plant response rating (0 to 100), Velvetleaf: 20
[10]; [21]
  Plant response rating, Velvetleaf: 0
[11]; [18]
  Plant response rating, Bermudagrass: 90
[11]; [19]
  Plant response rating, Bermudagrass: 0
[11]; [20]
  Plant response rating (0 to 100 where 0 is no effect and 100 is complete control), Bermudagrass: 100
[11]; [21]
  Plant response rating, Bermudagrass: 100
[12]; [18]
  Plant response rating, Lambsquarters: 70
[12]; [19]
  Plant response rating, Lambsquarters: 0
[12]; [20]
  Plant response rating (0 to 100), Lambsquarters: 100
[12]; [21]
  Plant response rating, Lambsquarters: 90
[13]; [18]
  Plant response rating, Foxtail, Giant: 20
[13]; [19]
  Plant response rating, Foxtail, Giant: 0
[13]; [20]
  Plant response rating (0 to 100), Foxtail, Giant: 60
[13]; [21]
  Plant response rating, Foxtail, Giant: 20
[14]; [18]
  Plant response rating, Surinam grass: 10
[14]; [19]
  Plant response rating, Surinam grass: 0
[14]; [20]
  Plant response rating (0 to 100), Surinam grass: 70
[14]; [21]
  Plant response rating, Surinam grass: 30
[15]; [18]
  Plant response rating, Crabgrass: 100
[15]; [19]
  Plant response rating, Crabgrass: 80
[15]; [20]
  Plant response rating (0 to 100), Crabgrass: 100
[15]; [21]
  Plant response rating, Crabgrass: 100
[16]; [18]
  Plant response rating, Cocklebur: 0
[16]; [19]
  Plant response rating, Cocklebur: 0
[16]; [20]
  Plant response rating (0 to 100), Cocklebur: 20
[16]; [21]
  Plant response rating, Cocklebur: 0
Corn (Zea mays); [18]
  Plant response rating, Corn: 0
Corn (Zea mays); [19]
  Plant response rating, Corn: 0
Corn (Zea mays); [20]
  Plant response rating (0 to 100), Corn: 30
Corn (Zea mays); [21]
  Plant response rating, Corn: 0
Nightshade; Rate 62 g/ha, scale 0 to 100
  Plant response rating, Nightshade: 0
Nightshade; [18]
  Plant response rating, Nightshade: 0
Nightshade; [22]
  Plant response rating, Nightshade: 0
[17]; [18]
  Plant response rating, Nutsedge: 0
[17]; [19]
  Plant response rating, Nutsedge: 0
[17]; [20]
  Plant response rating (0 to 100), Nutsedge: 0
[17]; [21]
  Plant response rating, Nutsedge: 0
Sunflower
  Plant response rating, Sunflower: 0
Soybean (Glycine max); [18]
  Plant response rating, Soybean: 0
Soybean (Glycine max); [19]
  Plant response rating, Soybean: 0
Soybean (Glycine max); [20]
  Plant response rating (0 to 100), Soybean: 20
Soybean (Glycine max); [21]
  Plant response rating, Soybean: 0
